One test deals with IDO enzyme (Homo sapiens (Human), UniProt P14902). In words: IDO enzyme inhibitory activity. It is filed as biochemical. To be noted: OD321 nm, 60 min. How it is done:
Firstly, the IDO gene was amplified by PCR, the PCR amplification products were recovered, and then the pET28a plasmid (purchased from Shanghai Baoman Biotechnology Co., Ltd.) and the IDO gel recovery products were digested with EcoR I and Xho I restriction endonucleases (37° C., digestion for 2 h), electrophorized and recovered. The recovered products were ligated overnight by a T4 ligase and then the ligation products were added to DH5α competent cells, placed on ice for 30 min, heat-shocked at 42° C. for 90 s, cultured on a shaker, and seeded to a plate. Monoclonies were picked, identified by PCR and then by sequencing.
The constructed BL21 containing the pET28a-IDO plasmid was cultured at 37° C. to OD600=0.6-0.8, and a final concentration of 7 μM of chlorine methemoglobin and 1 mM of IPTG (isopropyl-β-D-thiogalactoside) were added for induction at 28° C. for 4 h; after the induction, the cell was centrifuged at 6000 rpm at 4° C., the collected cells were washed once with 20 mM PBS (pH6.5), and centrifuged and collected again.
The collected cells were resuspended with a lysis solution (20 mM PBS pH 6.5), ultrasonically lysed (40% of power, lysis for 20 min, placed on ice), the lysed bacteria were centrifuged at 13000 rpm for 15 min, precipitate was discarded and the supernatant was maintained; the nickel column was equilibrated with the lysis solution (20 mM PBS pH 6.5) for 3 column volumes, and then the lysis supernatant was loaded onto the nickel column; after loading, four column volumes of a rinsing solution (20 mM PBS pH 6.5, 20 mM imidazole) were used for washing, and finally protein was eluted with eluent (20 mM PBS pH 6.5, 250 mM imidazole); the eluted protein solution was dialyzed for 4 h, and the dialysis solution was 20 mM PBS, pH 6.5. After the dialysis, the protein sample was concentrated, packed, flash frozen by liquid nitrogen, and stored at −80° C. for further use.
Firstly, the compound was subject to a 3-fold gradient dilution. 1 μL of each concentration was added to a 96-well plate; 50 μL of the IDO enzyme solution (final concentration 600 ng/100μL) was added: 25 μL of substrate 1 mixture solution was added, 25 μL of substrate 2 mixture solution was added to initiate the reaction. Finally, the plate was read at OD321 nm, 60 min.

The next test relates to Hela cells. The test can be described thus: Test for cell activity (Hela cells, interferon γ, kynurenine read at 480 nm). To be noted: human interferon γ 50 ng/mL, 48 h. Format: cell-based. How it is done: Hela cells (100 μL) were inoculated on a 96-well plate at an inoculation amount of 5×10^3 per well and grown overnight. The next day, after the compound was diluted, 1 μL was added to a 96-well plate and then 100 μL of medium containing human interferon y (final concentration of 50 ng/mL) was added to the 96-well plate to allow the final volume to be 200 μL. 48 h after incubating, 140 μL of supernatant in each well was transferred to a new 96-well plate. 10 μL of 6.1 N trichloroacetic acid was added to each well and mixed and incubated at 50° C. for 30 min, IDO catalyzed N-formyl canine urea to become canine urea. The reaction mixture was centrifuged at 2500 rpm for 10 minutes to remove the precipitate. 100 μL of supernatant in each well was transferred to a new 96-well plate and mixed with 100 μL of 2% dimethylaminobenzaldehyde acetic acid solution. After the canine urea was separated, the value was measured at 480 nm using a SPECTRAmax i3 reader.

Sequence of IDO enzyme (P14902 whole entry): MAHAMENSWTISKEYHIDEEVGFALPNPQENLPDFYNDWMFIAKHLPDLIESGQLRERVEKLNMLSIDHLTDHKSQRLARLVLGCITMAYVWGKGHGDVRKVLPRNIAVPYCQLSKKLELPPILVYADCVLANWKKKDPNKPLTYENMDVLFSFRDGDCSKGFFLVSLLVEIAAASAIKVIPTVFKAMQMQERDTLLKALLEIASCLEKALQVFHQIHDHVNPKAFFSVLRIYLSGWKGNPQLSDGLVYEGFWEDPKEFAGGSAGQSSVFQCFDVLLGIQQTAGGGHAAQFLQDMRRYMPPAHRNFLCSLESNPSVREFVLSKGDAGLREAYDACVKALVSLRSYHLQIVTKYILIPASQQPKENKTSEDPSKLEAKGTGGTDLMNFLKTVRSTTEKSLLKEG

As usually defined, the IC50 is the concentration at which inhibition is half-maximal. Read a high IC50 as weaker potency. `CS(=N)(=O)CCCCNc1nonc1/C(=N/O)Nc1cccc(C(F)(F)F)c1` (racemic) [compound 5, (±)(Z)—N′-hydroxy-4-((4-(thio-methylsulfoxideimine)butyl)amino)-N-(3-(trifluoromethyl)phenyl)-1,2,5-oxadiazole-3-carboxamidine]: the half-maximal inhibitory concentration (IC50) against IDO enzyme is less than 3600 nM; in the test on Hela cells it was less than 76 nM.

As for `CS(=O)(CCCNc1nonc1/C(=N/O)Nc1ccc(F)c(Br)c1)=NC#N` (racemic) [compound 9, (±) (Z)—N-(3-bromo-4-fluorophenyl)-N′-hydroxy-4-((3-(thio-methylsulfoxidecyanoamine)propyl)amino)-1,2,5-oxadiazole-3-carboxamidine], the figures for the IC50 at IDO enzyme and with Hela cells were 35 nM and 4.7 nM, respectively.

Regarding `CS(=O)(CCNc1nonc1/C(=N/O)Nc1ccc(F)c(Br)c1)=NC#N` (single isomer, unassigned) [compound 6B], the values for the half-maximal inhibitory concentration (IC50) on IDO enzyme and in the test with Hela cells were less than 82 nM and 0.6 nM, respectively.

For the compound `C[S@](=N)(=O)CCNc1nonc1/C(=N/O)Nc1ccc(F)c(Br)c1` [compound 1B], the IC50 against IDO enzyme was less than 5200 nM; in the test on Hela cells, less than 80 nM.

With `CS(=O)(CCCCNc1nonc1/C(=N/O)Nc1ccc(F)c(Br)c1)=NC#N` (racemic) [compound 11, (±) (Z)—N-(3-bromo-4-fluorophenyl)-N′-hydroxy-4-((4-(thio-methylsulfoxidecyanoamine)butyl)amino)-1,2,5-oxadiazole-3-carboxamidine], the figures for the IC50 against IDO enzyme and in the test on Hela cells were 55 nM and 7.6 nM, respectively.

`c1ccc(-c2cnc[nH]2)cc1` [5-phenyl-1-imidazole, reference compound] displayed an IC50 in the test with Hela cells of more than 50000 nM.

For the compound `N=S(=O)(CCNc1nonc1/C(=N/O)Nc1ccc(F)c(Br)c1)c1ccccc1` (racemic) [compound 7, (±) (Z)—N-(3-bromo-4-fluorophenyl)-N′-hydroxy-4-((2-(thio-phenylsulfoxideimine)ethyl)amino)-1,2,5-oxadiazole-3-carboxamidine], the results for the IC50 on IDO enzyme and in the test with Hela cells were less than 2600 nM and less than 260 nM, respectively.

Consider `CC(C)C(=O)O/N=C(\Nc1ccc(F)c(Br)c1)c1nonc1NCCS(C)(=O)=NC#N` (racemic) [compound 14, (±)(Z)—N-(3-Br-4-fluorophenyl)-N′-hydroxy-4-((2-(thio-methylsulfoxidecyanoamine)ethyl)amino)-1,2,5-oxadiazole-3-isobutyrate], for which the IC50 against IDO enzyme turned out to be 120 nM; in the test with Hela cells, 2.2 nM.

Turning to `C[S@@](=N)(=O)CCNc1nonc1/C(=N/O)Nc1ccc(F)c(Br)c1` [compound 1A], the IC50 is less than 5600 nM against IDO enzyme and less than 70 nM in the test on Hela cells.

With `CS(=N)(=O)CCCCNc1nonc1/C(=N/O)Nc1ccc(F)c(Br)c1` (racemic) [compound 3, (±)(Z)—N-(3-bromo-4-fluorophenyl)-N′-hydroxy-4-((4-(thio-methylsulfoxideimine)butyl)amino)-1,2,5-oxadiazole-3-carboxamidine], the IC50 against IDO enzyme was found to be 74 nM; in the test with Hela cells it was 8 nM.

Turning to `CCC(C)(C)C(=O)O/N=C(\Nc1ccc(F)c(Br)c1)c1nonc1NCCS(C)(=O)=NC#N` (racemic) [compound 13, (±) (Z)—N-(3-bromo-4-fluorophenyl)-N′-hydroxy(thio-methylsulfoxidecyanoamine)ethyl)amino)-1,2,5-oxadiazole-3-(2,2-dimethyl) butyrate], the figures for the half-inhibitory concentration (IC50) against IDO enzyme and in the test with Hela cells were 180 nM and 14 nM, respectively.

As to `CS(=N)(=O)CCNc1nonc1/C(=N/O)Nc1ccc(F)c(Br)c1` (racemic) [compound 1, (±) (Z)—N-(3-bromo-4-fluorophenyl)-N′-hydroxy-4-((2-(thio-methylsulfoxideimine)ethyl)amino)-1,2,5-oxadiazole-3-carboxamidine], the IC50 against IDO enzyme is 22 nM; in the test with Hela cells, 40 nM.

Consider `CS(=N)(=O)CCCCNc1nonc1/C(=N/O)Nc1ccc(F)c(C(F)(F)F)c1` (racemic) [compound 4, (±)(Z)—N-(4-fluoro-3-(trifluoromethyl)phenyl)-N′-hydroxy-4-((4-(thio-methylsulfoxideimine)butyl)amino)-1,2,5-oxadiazole-3-carboxamidine], for which the IC50 is less than 19000 nM against IDO enzyme and less than 500 nM in the test with Hela cells.

Regarding `CS(=O)(CCCNc1nonc1/C(=N/O)Nc1ccc(F)c(Cl)c1)=NC#N` (racemic) [compound 10, (±) (Z)—N-(3-chloro-4-fluorophenyl)-N′-hydroxy-4-((3-(thio-methylsulfoxidecyanoamine)propyl)amino)-1,2,5-oxadiazole-3-carboxamidine], the half-maximal inhibitory concentration (IC50) was less than 5000 nM against IDO enzyme and 2.8 nM in the test on Hela cells.

For `CS(=O)(CCCCNc1nonc1/C(=N/O)Nc1ccc(F)c(Cl)c1)=NC#N` (racemic) [compound 12, (±)(Z)—N-(3-chloro-4-fluorophenyl)-N′-hydroxy-4-((4-(thio-methylsulfoxidecyanoamine)butyl)amino)-1,2,5-oxadiazole-3-carboxamidine], the IC50 is less than 18000 nM against IDO enzyme and 2.8 nM in the test on Hela cells.

For `CS(=O)(CCNc1nonc1/C(=N/O)Nc1ccc(F)c(Br)c1)=NC#N` (single isomer, unassigned) [compound 6A], the IC50 is less than 88 nM against IDO enzyme and 0.3 nM with Hela cells.

Turning to `CS(=N)(=O)CCCNc1nonc1/C(=N/O)Nc1ccc(F)c(Br)c1` (racemic) [compound 2, (±)(Z)—N-(3-bromo-4-fluorophenyl)-N′-hydroxy-4-((3-(thio-methylsulfoxideimine)propyl)amino)-1,2,5-oxadiazole-3-carboxamidine], the 50% inhibitory concentration (IC50) is less than 3000 nM on IDO enzyme and less than 100 nM with Hela cells.

Take `CC(C)(C)C(=O)O/N=C(\Nc1ccc(F)c(Br)c1)c1nonc1NCCS(C)(=O)=NC#N` (racemic) [compound 15, (±)(Z)—N-(3-bromo-4-fluorophenyl)-N′-hydroxy-4-((2-(thio-methylsulfoxidecyanoamine)ethyl)amino)-1,2,5-oxadiazole-3-trimethyl acetate]: the IC50 against IDO enzyme worked out at 360 nM; in the test on Hela cells it was 47 nM.

For the compound `CS(=N)(=O)CCCNc1nonc1/C(=N/O)Nc1cccc(S(F)(F)(F)(F)F)c1` (racemic) [compound 8], the half-inhibitory concentration (IC50) at IDO enzyme was less than 14000 nM; in the test on Hela cells it was less than 800 nM.

These data come from US11053207B2, “Indoleamine-2,3-dioxygenase inhibitor and preparation method therefor” (SHANGHAI INSTITUTE OF ORGANIC CHEMISTRY, CHINESE ACADEMY OF …, priority 2014, dated 2021).
